In publication PMC7269057, “Synthesis of calix[4]azacrown substituted sulphonamides with antioxidant, acetylcholinesterase, butyrylcholinesterase, tyrosinase and carbonic anhydrase inhibitory action” (Journal of Enzyme Inhibition and Medicinal Chemistry, 2020):
Like-named read-outs stand apart in the source and are kept apart here.

What was measured:
BChE = BChE (Homo sapiens, UniProt P06276); test: Anticholinesterase assay (Ellman), BChE; type: biochemical; details: read-out: BChE assay % inhibition
Method: The inhibitory effect of novel calix[4]azacrown substituted sulphonamide Schiff bases CX(1–6) on AChE and BChE activities was determined according to the slightly modified spectrophotometric method of Ellman et al.[38]. All compounds were dissolved in DMSO to prepare stock solutions at 4 mM concentration. Aliquots of 150 µL of 100 mM sodium phosphate buffer (pH 8.0), 10 µL of sample solution and 20 µL AChE (or BChE) solution were mixed and incubated for 15 min at 25 °C, and DTNB [5,5′-Dithio-bis(2-nitro-benzoic)acid] (10 µL) is added. The reaction was then initiated by the addition of acetylthiocholine iodide (or butyrylthiocholine iodide) (10 µL). […]. Tests were carried out in triplicate. Galantamine was used as positive control.

hCA IV = target: T1, hCA IV (Homo sapiens, UniProt P22748); test: biochemical; details: stopped flow CO2 hydrase assay; mean from 3 assays, errors ± 5–10%
T1 construct: made in house
Text: (§2) An SX.18 MV-R Applied Photophysics (Oxford, UK) stopped-flow instrument has been used to assay the inhibition of various CA isozymes[26]. […] The inhibition constants were obtained by nonlinear least-squares methods using the Cheng-Prusoff equation, as reported earlier, and represent the mean from at least three different determinations1[27–32].

hCA IX = target: T2, hCA IX (Homo sapiens, UniProt Q16790); test: biochemical; details: stopped flow CO2 hydrase assay; mean from 3 assays, errors ± 5–10%
T2 construct: made in house
Text: as §2

hCA II = target: T3, hCA II (Homo sapiens, UniProt P00918); test: CA inhibition, stopped flow CO2 hydrase assay; type: biochemical; details: mean from 3 assays, errors ± 5–10%
T3 construct: made in house
Method: (§1) An SX.18 MV-R Applied Photophysics (Oxford, UK) stopped-flow instrument has been used to assay the inhibition of various CA isozymes. Phenol Red (at a concentration of 0.2 mM) has been used as an indicator, working at the absorbance maximum of 557 nm, with 10 mM Hepes (pH 7.4) as a buffer, 0.1 M Na2SO4 or NaClO4 (for maintaining constant the ionic strength; […]. Stock solutions of inhibitors were prepared at a concentration of 10 mM (in DMSO-water 1:1, v/v) and dilutions up to 0.01 nM done with the assay buffer mentioned above. At least 7 different inhibitor concentrations have been used for measuring the inhibition constant. Inhibitor and enzyme solutions were pre-incubated together for 10 min at room temperature before assay, to allow for the formation of the E-I complex. Triplicate experiments were done for each inhibitor concentration, and the value reported throughout the paper is the mean of such results. The inhibition constants were obtained by nonlinear least-squares methods using the Cheng-Prusoff equation, as reported earlier, and represent the mean from at least three different determinations1[27–32]. All CA isozymes used here were recombinant proteins obtained as reported earlier by our group.

hCA XII = target: T4, hCA XII (Homo sapiens, UniProt O43570); test: CA inhibition, stopped flow CO2 hydrase assay; type: biochemical; details: mean from 3 assays, errors ± 5–10%
T4 construct: made in house
Method: as §1

hCA I = target: T5, hCA I (Homo sapiens, UniProt P00915); test: biochemical; details: stopped flow CO2 hydrase assay; mean from 3 assays, errors ± 5–10%
T5 construct: made in house
Text: as §2

Metal chelating activity = details: ferrous chloride/ferrozine, 562 nm; mean ± SD of three measurements; read-out: IC50 Metal Chelate
Method: The chelating ability of synthesised compounds was examined according to the method of Dinis et al.[37]. The tested compounds at different concentrations were added to each well and 4 µL of 2 mM ferrous (II) chloride was added. Then 8 µL of 5 mM ferrozine was added and the reaction was started. After 10 min at room temperature, the absorbance was measured at 562 nm against a blank. The results were expressed as a percentage of inhibition of the ferrozine-Fe^2+ complex formation. The percentage inhibition of the ferrozine -Fe^2+ complex formation was calculated using the formula given below: Chelating ability (%)=(Acontrol−Asample)/Acontrol×100 where A is the absorbance. Tests were carried out in triplicate. EDTA was used as a positive control.

[1] = ABTS cation radical decolorisation assay; details: 6 min at room temperature, 734 nm; mean ± SD of three measurements
Method: The percent inhibition of decolorisation of ABTS [2,2′-azino-bis(3-ethylbenzothiazoline-6-sulfonic acid)] cation radical is obtained as a function of time and concentration and evaluated by comparison with the BHT and BHA compounds used as standard[35]^,[36]. The tested compounds at different concentrations are added to each well and 160 µL of 7 mM ABTS solution is added. After 6 min at room temperature, the absorbances were measured at 734 nm. ABTS cation radical decolorisation activities were determined by using the equation below: %Inhibition = (Acontrol−Asample)/Acontrol × 100 where A is the absorbance. Tests were carried out in triplicate. BHA and BHT were used as positive control.

hCA VII = target: T6, hCA VII (Homo sapiens, UniProt P43166); test: biochemical; details: stopped flow CO2 hydrase assay; mean from 3 assays, errors ± 5–10%
T6 construct: made in house
Text: as §2

Tyrosinase from mushroom = test: Anti-tyrosinase activity (diphenolase, L-DOPA substrate); type: biochemical; details: at 200 µM
Method: Anti-tyrosinase activity of the compounds was performed according to the method designed by Hearing and Jimenez[39]. Firstly, the inhibition of diphenolase function of the compounds was evaluated and L-DOPA was used as substrate. Tyrosinase from mushroom (E.C. 1.14.18.1) (30 U, 28 nM) was dissolved in Na-phosphate buffer (pH = 6.8, […]) and the compounds were added to the solution for pre-incubation at room temperature for ten minutes. After incubation, 0.5 mM L-DOPA was added to the mixture and the change in absorbance was measured at 475 nm at 37 °C. For positive control, kojic acid was used. The following formula was used to calculate the percentage of all enzyme inhibitions: Inhibition (%) = (Acontrol–Asample)/Acontrol × 100

[2] = DPPH radical scavenging assay; details: 30 min in the dark, 517 nm; mean ± SD of three measurements; read-out: IC50 DPPH Free Radical
Method: The DPPH (2,2-diphenyl-1-picrylhydrazyl) radical scavenging activity of the synthesised compounds was determined by a spectrophotometric method based on the reduction of an ethanol solution of DPPH[33]^,[34]. 2, 5, 10, 20 µL of 1 mM stock solution of each compound was completed to 40 µL with the DMSO and mixed with 160 µL of 0.1 mM of DPPH free radical solution. The mixture was led to stand for 30 min in the dark and the absorbance was then measured at 517 nm against a blank. Inhibition of free radical, DPPH, in percent (I %), was calculated according to the formula: I %=(Acontrol−Asample)/Acontrol×100 where Acontrol is the absorbance of the control reaction (containing all reagents except for the tested compounds), and Asample is the absorbance of the test compounds. Tests were carried out in triplicate. BHA and BHT were used as positive control.

T5 sequence (P00915 whole entry): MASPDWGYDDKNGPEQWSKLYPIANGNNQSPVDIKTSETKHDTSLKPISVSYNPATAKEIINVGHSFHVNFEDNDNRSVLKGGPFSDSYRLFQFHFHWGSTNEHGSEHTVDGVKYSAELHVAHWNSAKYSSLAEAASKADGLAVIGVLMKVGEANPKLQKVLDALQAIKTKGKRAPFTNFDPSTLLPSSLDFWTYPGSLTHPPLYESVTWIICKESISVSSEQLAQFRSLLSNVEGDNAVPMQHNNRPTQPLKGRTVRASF
T1 sequence (P22748 19-312): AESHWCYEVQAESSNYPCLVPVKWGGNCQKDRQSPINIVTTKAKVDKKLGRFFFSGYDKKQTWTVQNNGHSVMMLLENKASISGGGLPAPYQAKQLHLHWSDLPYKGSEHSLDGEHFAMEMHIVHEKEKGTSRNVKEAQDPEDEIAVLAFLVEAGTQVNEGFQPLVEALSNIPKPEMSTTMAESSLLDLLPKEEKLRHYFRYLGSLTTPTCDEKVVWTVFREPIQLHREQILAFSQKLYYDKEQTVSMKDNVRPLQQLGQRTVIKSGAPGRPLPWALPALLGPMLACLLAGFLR
T4 sequence (O43570 25-354): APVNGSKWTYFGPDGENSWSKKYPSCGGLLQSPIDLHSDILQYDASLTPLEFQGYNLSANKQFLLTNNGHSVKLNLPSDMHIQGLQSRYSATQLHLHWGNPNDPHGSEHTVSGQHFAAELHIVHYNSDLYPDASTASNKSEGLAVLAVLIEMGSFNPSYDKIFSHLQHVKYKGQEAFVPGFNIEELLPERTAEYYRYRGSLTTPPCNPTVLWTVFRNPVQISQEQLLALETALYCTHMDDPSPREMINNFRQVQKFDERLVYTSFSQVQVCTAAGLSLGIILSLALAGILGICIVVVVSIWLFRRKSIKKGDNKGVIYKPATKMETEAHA
T6 sequence (P43166 whole entry): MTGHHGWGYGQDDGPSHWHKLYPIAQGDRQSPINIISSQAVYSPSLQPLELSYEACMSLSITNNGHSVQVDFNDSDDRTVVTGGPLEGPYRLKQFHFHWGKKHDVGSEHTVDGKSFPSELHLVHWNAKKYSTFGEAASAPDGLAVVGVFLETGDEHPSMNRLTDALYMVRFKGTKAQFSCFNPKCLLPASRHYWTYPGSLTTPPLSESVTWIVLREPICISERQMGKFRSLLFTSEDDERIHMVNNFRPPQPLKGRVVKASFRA
Sequence of BChE (P06276 29-602): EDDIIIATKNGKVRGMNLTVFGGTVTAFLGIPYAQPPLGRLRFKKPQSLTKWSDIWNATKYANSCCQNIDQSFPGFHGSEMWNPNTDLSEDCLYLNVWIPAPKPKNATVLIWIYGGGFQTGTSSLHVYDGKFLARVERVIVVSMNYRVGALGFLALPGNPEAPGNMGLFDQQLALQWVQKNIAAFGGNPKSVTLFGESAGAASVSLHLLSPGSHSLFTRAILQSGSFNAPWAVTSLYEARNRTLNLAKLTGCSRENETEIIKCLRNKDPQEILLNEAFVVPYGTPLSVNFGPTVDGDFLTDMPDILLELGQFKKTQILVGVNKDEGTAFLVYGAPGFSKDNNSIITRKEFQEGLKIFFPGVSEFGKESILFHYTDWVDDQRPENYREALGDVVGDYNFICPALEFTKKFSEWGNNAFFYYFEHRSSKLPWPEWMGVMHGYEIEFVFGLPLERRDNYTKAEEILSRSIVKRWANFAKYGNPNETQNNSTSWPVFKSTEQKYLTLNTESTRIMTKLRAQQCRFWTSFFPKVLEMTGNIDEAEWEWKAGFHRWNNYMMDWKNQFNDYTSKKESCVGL

| SMILES | inhibition at 200 µM (BChE) [%] | Ki (hCA IV) [µM] | Ki (hCA IX) [µM] | Ki (hCA II) [µM] | Ki (hCA XII) [µM] | Ki (hCA I) [µM] | IC50 (Metal chelating activity) [µM] | IC50 [1] [µM] | Ki (hCA VII) [µM] | Tyrosinase activity % inhibition (Tyrosinase from mushroom) | IC50 [2] [µM] | inhibition at 200 µM (BChE; at 200 µM) [%] |
| --- | --- | --- | --- | --- | --- | --- | --- | --- | --- | --- | --- | --- |
| COc1ccc2c3c1O[C@H]1C[C@@H](O)C=C[C@@]31CCN(C)C2 [Galantamine, reference compound] | 76.5 ± 1.28 |  |  |  |  |  |  |  |  |  |  |  |
| CC(C)(C)c1cc2c3c(c1)Cc1cc(C=Nc4ccc(S(N)(=O)=O)cc4)cc(c1O)Cc1cc(C(C)(C)C)cc(c1OCC(=O)NCCNC(=O)CO3)Cc1cc(C=Nc3ccc(S(N)(=O)=O)cc3)cc(c1O)C2 [CX-1] |  | 4.36 | 0.15 | 0.82 | 0.27 | 5.55 | > 1000 | 769.97 ± 0.22 | 1.21 | 24.46 ± 0.53% | > 1000 |  |
| Cc1ccc(S(=O)(=O)NN=Cc2cc3c(O)c(c2)Cc2cc(C(C)(C)C)cc4c2OCC(=O)NCCNC(=O)COc2c(cc(C(C)(C)C)cc2Cc2cc(C=NNS(=O)(=O)c5ccc(C)cc5)cc(c2O)C4)C3)cc1 [CX-5] |  | > 100 | > 100 | > 100 | > 100 | > 100 | > 1000 | 9.79 ± 0.09 | > 100 | no activity | 16.8 ± 0.85 |  |
| Cc1cc(C(C)(C)C)c(O)c(C(C)(C)C)c1 [BHT, reference compound] |  |  |  |  |  |  |  | 13.2 ± 0.27 |  |  | 58.86 ± 0.5 |  |
| COc1ccc(O)c(C(C)(C)C)c1 [BHA, reference compound] |  |  |  |  |  |  |  | 17.59 ± 0.1 |  |  | 7.88 ± 0.2 |  |
| CC(C)(C)c1cc2c3c(c1)Cc1cc(C=Nc4ccc(S(=O)(=O)Nc5ncccn5)cc4)cc(c1O)Cc1cc(C(C)(C)C)cc(c1OCC(=O)NCCNC(=O)CO3)Cc1cc(C=Nc3ccc(S(=O)(=O)Nc4ncccn4)cc3)cc(c1O)C2 [CX-3] |  | > 100 | 46 | > 100 | 10.2 | > 100 | > 1000 | 121 ± 0.95 | > 100 | 35.52 ± 0.82% | > 1000 |  |
| CC(=O)Nc1ccc(S(=O)(=O)NN=Cc2cc3c(O)c(c2)Cc2cc(C(C)(C)C)cc4c2OCC(=O)NCCNC(=O)COc2c(cc(C(C)(C)C)cc2Cc2cc(C=NNS(=O)(=O)c5ccc(NC(C)=O)cc5)cc(c2O)C4)C3)cc1 [CX-6] |  | > 100 | 64.6 | > 100 | > 100 | > 100 | > 1000 | 7.74 ± 0.04 | > 100 | 28.15 ± 0.74% | 9.02 ± 0.05 | 35.4 ± 0.9 |
| O=c1cc(CO)occ1O [Kojik acid, kojic acid, reference compound] |  |  |  |  |  |  |  |  |  | 95.26 ± 0.23% |  |  |
| Cc1cc(NS(=O)(=O)c2ccc(/N=C/c3cc4c(O)c(c3)Cc3cc(C(C)(C)C)cc5c3OCC(=O)NCCNC(=O)COc3c(cc(C(C)(C)C)cc3Cc3cc(/C=N/c6ccc(S(=O)(=O)Nc7cc(C)on7)cc6)cc(c3O)C5)C4)cc2)no1 [CX-2] |  | > 100 | 67.6 | > 100 | > 100 | > 100 | > 1000 | > 1000 | > 100 | 19.55 ± 0.43% | > 1000 |  |
| CC(C)(C)c1cc2c3c(c1)Cc1cc(C=Nc4ccc(S(=O)(=O)Nc5nc6ccccc6s5)cc4)cc(c1O)Cc1cc(C(C)(C)C)cc(c1OCC(=O)NCCNC(=O)CO3)Cc1cc(C=Nc3ccc(S(=O)(=O)Nc4nc5ccccc5s4)cc3)cc(c1O)C2 [CX-4] |  | > 100 | > 100 | > 100 | > 100 | > 100 | > 1000 | > 1000 | > 100 | 16.48 ± 0.21% | 520.3 ± 0.89 |  |
| O=C(O)CN(CCN(CC(=O)O)CC(=O)O)CC(=O)O [EDTA, reference compound] |  |  |  |  |  |  | 26.82 ± 0.1 |  |  |  |  |  |
